Measurements published in ChEMBL document CHEMBL4813944 (Eur J Med Chem, 2021).
Active and inactive are the calls of the source. The rule behind the calls is not given here.

Legend:
[1] = system: SH-SY5Y; assay: Neuroprotective activity against salsolinol-induced neurotoxicity in human SH-SY5Y cells assessed as cell death at 10 uM measured after 24 hrs by PI staining based analysis (reference value: 100%); format: functional
[2] = system: SH-SY5Y; assay: Neuroprotective activity against salsolinol-induced neurotoxicity in human SH-SY5Y cells assessed as cell viability at 1 uM measured after 24 hrs by calcein-AM staining based fluorescence analysis (reference value: 70.49 +/-0.51%); format: functional; conditions: read-out: Activity
[3] = Cytotoxicity against human SH-SY5Y cells assessed as cell viability at 1 uM measured after 24 hrs by calcein-AM staining based fluorescence analysis; conditions: read-out: Activity
[4] = Cytotoxicity against human SH-SY5Y cells assessed as cell viability at 0.1 uM measured after 24 hrs by calcein-AM staining based fluorescence analysis; conditions: read-out: Activity
[5] = Cytotoxicity against human SH-SY5Y cells assessed as cell viability at 10 uM measured after 24 hrs by calcein-AM staining based fluorescence analysis; conditions: read-out: Activity
[6] = system: SH-SY5Y; assay: Neuroprotective activity against salsolinol-induced neurotoxicity in human SH-SY5Y cells assessed as reduction in cell death at 0.1 to 1 uM measured after 24 hrs by PI staining based analysis; format: functional; conditions: dose 0.1-1 µM
[7] = system: SH-SY5Y; assay: Neuroprotective activity against salsolinol-induced neurotoxicity in human SH-SY5Y cells assessed as reduction in cell death at 0.1 to 10 uM measured after 24 hrs by PI staining based analysis; format: functional; conditions: dose 0.1-10 µM
[8] = system: SH-SY5Y; assay: Inhibition of Salsolinol-induced oxidative stress in human SH-SY5Y cells assessed as superoxide radical formation at 1 uM measured after 24 hrs by DHE staining based fluorescence spectrophotometry (reference value: 100%); format: functional; parameters: scale not given: the % may be the effect or the level left
[9] = system: SH-SY5Y; assay: Inhibition of Salsolinol-induced oxidative stress in human SH-SY5Y cells assessed as reduction in superoxide radical formation at 1 uM measured after 24 hrs by DHE staining based fluorescence microscopy; format: functional, cell-based
[10] = Inhibition of glutamate-induced mitochondrial depolarization in human SH-SY5Y cells assessed as mitochondrial membrane potential at 10 uM incubated for 1 hr by JC10 dye based fluorescence analysis (reference value: 31.2 +/-4.6%); format: functional; parameters: scale not given: the % may be the effect or the level left
[11] = system: SH-SY5Y; assay: Inhibition of salsolinol-induced apoptosis in human SH-SY5Y cells assessed as caspase 3/7 activity at 10 uM incubated for 24 hrs using Ac-DEVD-AMC as substrate by fluorescence analysis (reference value: 100%); format: functional; parameters: scale not given: the % may be the effect or the level left
[12] = system: SH-SY5Y; assay: Inhibition of Salsolinol-induced oxidative stress in human SH-SY5Y cells assessed as superoxide radical formation at 10 uM measured after 24 hrs by DHE staining based fluorescence spectrophotometry (reference value: 100%); format: functional; parameters: scale not given: the % may be the effect or the level left
[13] = system: SH-SY5Y; assay: Neuroprotective activity against glutamate-induced neurotoxicity in human SH-SY5Y cells assessed as cell death at 10 uM measured after 24 hrs by PI staining based assay (reference value: 100%); format: functional
[14] = system: SH-SY5Y; assay: Neuroprotective activity against glutamate-induced neurotoxicity in human SH-SY5Y cells assessed as reduction in cell death at 0.1 to 1 uM measured after 24 hrs by PI staining based assay; format: functional; conditions: dose 0.1-1 µM
[15] = Inhibition of salsolinol-induced mPTP opening in human SH-SY5Y cells assessed as fold change in fluorescence intensity at 10 uM measured after 24 hrs by calcein AM/CoCl2 based fluorescence microscopic analysis (reference value: 0.49 +/-0.02); format: functional
[16] = system: SH-SY5Y; assay: Inhibition of salsolinol-induced apoptosis in human SH-SY5Y cells assessed as caspase 3/7 activity at 1 uM incubated for 24 hrs using Ac-DEVD-AMC as substrate by fluorescence analysis (reference value: 100%); format: functional; parameters: scale not given: the % may be the effect or the level left
[17] = Inhibition of salsolinol-induced mPTP opening in human SH-SY5Y cells assessed as fold change in fluorescence intensity at 1 uM measured after 24 hrs by calcein AM/CoCl2 based fluorescence microscopic analysis (reference value: 0.49 +/-0.02); format: functional
[18] = system: SH-SY5Y; assay: Inhibition of salsolinol-induced mitochondrial depolarization in human SH-SY5Y cells assessed as recovery of mitochondrial membrane potential measured after 24 hrs by JC-1 staining based flow cytometry; format: functional, cell-based
[19] = system: SH-SY5Y; assay: Inhibition of salsolinol-induced apoptosis in human SH-SY5Y cells assessed as appearance of necrotic cells along with early and late apoptotic cells at 10 uM measured after 24 hrs by AO/PIstaining based fluorescence microscopy; format: functional, cell-based
[20] = system: SH-SY5Y; assay: Inhibition of glutamate-induced oxidative stress in human SH-SY5Y cells assessed as superoxide radical formation at 10 uM measured after 4 hrs by DHE staining based fluorescence spectrophotometry (reference value: 100%); format: functional; parameters: scale not given: the % may be the effect or the level left
[21] = system: SH-SY5Y; assay: Inhibition of glutamate-induced apoptosis in human SH-SY5Y cells assessed as caspase 3/7 activity at 10 uM incubated for 1 hr using Ac-DEVD-AMC as substrate by fluorescence analysis (reference value: 100%); format: functional; parameters: scale not given: the % may be the effect or the level left
[22] = Inhibition of salsolinol-induced mitochondrial depolarization in human SH-SY5Y cells assessed as mitochondrial membrane potential at 10 uM measured after 24 hrs by JC-1 staining based flow cytometry (reference value: 45.3 +/-2.09%); format: functional; parameters: scale not given: the % may be the effect or the level left
[23] = system: SH-SY5Y; assay: Inhibition of glutamate-induced oxidative stress in human SH-SY5Y cells assessed as reduction in superoxide radical formation at 10 uM measured after 4 hrs by DHE staining based fluorescence microscopy; format: functional, cell-based
[24] = system: SH-SY5Y; assay: Inhibition of glutamate-induced apoptosis in human SH-SY5Y cells assessed as caspase 3/7 activity at 0.5 uM incubated for 1 hr using Ac-DEVD-AMC as substrate by fluorescence analysis (reference value: 100%); format: functional; parameters: scale not given: the % may be the effect or the level left
[25] = system: SH-SY5Y; assay: Neuroprotective activity against salsolinol-induced neurotoxicity in human SH-SY5Y cells assessed as cell viability at 0.5 uM measured after 24 hrs by calcein-AM staining based fluorescence analysis (reference value: 70.49 +/-0.51%); format: functional; conditions: read-out: Activity
[26] = system: SH-SY5Y; assay: Neuroprotective activity against salsolinol-induced neurotoxicity in human SH-SY5Y cells assessed as cell death at 0.5 uM measured after 24 hrs by PI staining based analysis (reference value: 100%); format: functional
[27] = Inhibition of salsolinol-induced mPTP opening in human SH-SY5Y cells assessed as fold change in fluorescence intensity at 0.5 uM measured after 24 hrs by calcein AM/CoCl2 based fluorescence microscopic analysis (reference value: 0.49 +/-0.02); format: functional

SMILES | viability at 1 µM [2] | viability at 24 h, 1 µM [3] | viability at 24 h, 0.1 µM [4] | viability at 24 h, 10 µM [5] | further results
C=C(C(=O)OCc1cn([C@@H]2O[C@H](COC(C)=O)[C@H](OC(C)=O)[C@H](OC(C)=O)[C@H]2OC(C)=O)nn1)[C@@H]1CC[C@]2(COC(C)=O)CC[C@]3(C)[C@H](CC[C@@H]4[C@@]5(C)CC[C@H](OC(C)=O)C(C)(C)[C@@H]5CC[C@]43C)[C@@H]12 | 90.9% | 139% | 140% | 130% | Activity [1]: 68.7%
C=C(Cn1cc(-c2cccnc2)nn1)[C@@H]1CC[C@]2(C(=O)O)CC[C@]3(C)[C@H](CC[C@@H]4[C@@]5(C)CC[C@H](OC(C)=O)C(C)(C)[C@@H]5CC[C@]43C)[C@@H]12 | 84.3% | 124% | 106% | 57.6% | Activity [6]: inactive
C=C(C(=O)O)[C@@H]1CC[C@]2(COC(C)=O)CC[C@]3(C)[C@H](CC[C@@H]4[C@@]5(C)CC[C@H](OC(C)=O)C(C)(C)[C@@H]5CC[C@]43C)[C@@H]12 |  | 102% | 102% | 11.6% | 
CC(=O)OC[C@H]1O[C@@H](n2cc(CO)nn2)[C@H](OC(C)=O)[C@@H](OC(C)=O)[C@H]1OC(C)=O |  | 107% | 109% | 100% | 
C=C(Cn1cc(-c2cccnc2)nn1)[C@@H]1CC[C@]2(C(=O)O)CC[C@]3(C)[C@H](CC[C@@H]4[C@@]5(C)CC[C@H](O)C(C)(C)[C@@H]5CC[C@]43C)[C@@H]12 | 81.7% | 116% | 103% | 133% | Activity [7]: inactive
C=C(C(=O)OCc1cn([C@@H]2O[C@H](COC(C)=O)[C@@H](OC(C)=O)[C@H](OC(C)=O)[C@H]2OC(C)=O)nn1)[C@@H]1CC[C@]2(COC(C)=O)CC[C@]3(C)[C@H](CC[C@@H]4[C@@]5(C)CC[C@H](OC(C)=O)C(C)(C)[C@@H]5CC[C@]43C)[C@@H]12 | 91.7% | 138% | 115% | 128% | Activity [8]: 74.5%; inhibition [9]: Active; Activity [10]: 74.7%; Activity [11]: 79.5%; Activity [12]: 77.2%; Activity [13]: 75.1%; Activity [14]: Active; fold change (FC) [15]: 1.2; Activity [16]: 81.8%; Activity [1]: 62.6%; fold change (FC) [17]: 0.75; inhibition [18]: Dose-Dependent Effect; Activity [19]: Active; Activity [20]: 82.2%; Activity [21]: 90.9%; Activity [22]: 89.2%
CC(=O)N(O)CCCCCNC(=O)CCC(=O)N(O)CCCCCNC(=O)CCC(=O)N(O)CCCCCN [DEFEROXAMINE] |  |  |  |  | Activity [13]: 79.5%; inhibition [23]: inactive; Activity [20]: 87.2%; Activity [21]: 77.4%
CC1(C)CC[C@]23CC[C@]4(C)[C@H](CC[C@@H]5[C@@]6(C)CC(C#N)=C(O)C(C)(C)[C@@H]6CC[C@]54C)[C@H]2[C@H]1OC3 |  | 93.8% | 93.1% | 98.8% | 
C/C=C/C[C@@H](C)[C@@H](O)[C@H]1C(=O)N[C@@H](CC)C(=O)N(C)CC(=O)N(C)[C@@H](CC(C)C)C(=O)N[C@@H](C(C)C)C(=O)N(C)[C@@H](CC(C)C)C(=O)N[C@@H](C)C(=O)N[C@H](C)C(=O)N(C)[C@@H](CC(C)C)C(=O)N(C)[C@@H](CC(C)C)C(=O)N(C)[C@@H](C(C)C)C(=O)N1C [CYCLOSPORINE] |  |  |  |  | Activity [24]: 89.1%; viability at 0.5 µM [25]: 99.3%; Activity [26]: 74.5%; fold change (FC) [27]: 0.67
COC(=O)[C@]12CCC(C)(C)C[C@@H]1[C@H]1C=C[C@@H]3[C@@]4(C)CC(SC#N)C(=O)C(C)(C)[C@@H]4CC[C@@]3(C)[C@]1(C)CC2 (stereo partly drawn) |  | 107% | 100% | 99.2% | 
C=C(C)[C@@H]1CC[C@]2(C(=O)O)CC[C@]3(C)[C@H](C=C[C@@H]4[C@@]5(C)Cc6sc(N7CCOCC7)nc6C(C)(C)[C@@H]5CC[C@]43C)[C@@H]12 |  | 90% | 91.3% | 87% | 
